Data set [1] relates to rat peritoneal mesothelial cells. The following applies: previous finding, ref [10]; cited from earlier work.
The test system is the same in data set [2]. The data set is described as follows: TGF-β induced mesothelial/mesenchymal transition (MMT), cell morphology. It is filed as cell-based. Conditions: trametinib alone, no TGF-β, five days. Here is the method:
Isolated mesothelial cells were incubated under control conditions without either TGF-β or trametinib, with TGF-β or trametinib alone, or with both TGF-β and trametinib for five days (FIGS. 1 and 2).
The experiments in this study were approved by the Institutional Animal Care and Use Committee at Thomas Jefferson University, and were performed in accordance with the National Institutes of Health guidelines for the care and handling of laboratory animals. RPMCs were isolated and cultured as described previously. Briefly, Sprague Dawley rats weighing 150 g-250 g, purchased from Jackson Laboratory, were injected intra-peritoneally with 30 ml of 0.25% trypsin/2.21 mM EDTA under Isoflurane anesthesia and were kept on the metal pad warmed to 37° C. for one hour; after which the abdominal fluid was collected and centrifuged at 300 g for 10 minutes. The isolated pelleted cells were re-suspended and cultured in DMEM/F12 medium supplemented with 10% (v/v) FBS at 37° C. in a humidified atmosphere of 5% CO2 in air. The RPMCs, from the fourth to seventh passages (split ratio 1:4), at 90% confluence were used for the experiments. The cells were treated either with 10 ng/ml of TGF-β1 (R&D systems) alone, or with TGF-β1 and the MEK1/2 inhibitor, Trametinib (2 or 5 nM).

A further data set in a line: Solubility in water. Format: physicochemical.
For data set [3], the system named is phospho-MEK1/2, phospho-Erk1/2, FNEDA, αSMA, phospho-Smad2 (linker). The data set is described as follows: Western analysis of TGF-β1 treated rat peritoneal mesothelial cells. The following applies: Western blot, FIG. 2. It is filed as cell-based. Here is the method: These insights led us to explore the potential mechanisms of action of trametinib using Western blotting analyses (FIG. 2). […] These increases in gene expression of phosphor-Erk 1/2, FNEDA, αSMA and p-SMAD2 (linker) were blocked by as low a concentration of trametinib as 2 nM (FIG. 2).
The experiments in this study were approved by the Institutional Animal Care and Use Committee at Thomas Jefferson University, and were performed in accordance with the National Institutes of Health guidelines for the care and handling of laboratory animals. RPMCs were isolated and cultured as described previously. […]
RPMCs were lysed in ice-cold modified RIPA buffer with protease inhibitor cocktail (50 mM/L Tris-HCl, 1% NP-40, 0.25% Na-deoxycholate, 150 mM/L NaCl, 1 mM/L EDTA, 1 mmol/L phenylmethyl sulfonyl fluoride, 1 mM/L sodium orthovanadate, 1 mM/L NaF, pH 7.4). Equivalent amounts of homogenate (50 μg/well), determined by Coomassie blue assay, were separated by sodium dodecyl sulfate polyacrylamide gel electrophoresis (SDS-PAGE), transferred to either nitrocellulose or PVDF membranes, and detected by SuperSignal West Femto or Pico chemiluminescence.

A further data set deals with C57BL/6 mice. Kind of data set: Cecal abrasion model of intra-abdominal adhesion formation, drug by osmotic pump for eight days.

Each structure is given as a SMILES string.

Text for C57BL/6 mice: Mice were allowed to acclimate in the animal facility for at least one week prior to surgery, given free access to standard chow and water and a 12-h light-dark cycle in standard acrylic cages with wood chip bedding. Animals were randomly assigned into either an experimental group (laparotomy and cecal abrasion) or a control group (laparotomy only).
Briefly, mice underwent induction and maintenance anesthesia with 1-3% isofluorane with supplemental oxygen. After adequate sedation was achieved, mice were weighed and 0.1 mg/kg subcutaneous Buprenex (Hospira, Inc., Lake Forest, IL) was administered to ensure analgesia. The ventral surface was clipped along the midline and the skin was sterilized with betadine. A 2 cm midline incision was made subxiphoid to avoid injuring the bladder and the cecum was identified and externalized. The anti-mesenteric side of the cecum was gently swiped 30 times with gauze then returned to the abdomen. The incision was closed with a double layer of sutures with 2-0 silk [13]. […] In the drug escalation study, laparotomy and cecal abrasion were carried out as above as well as sub-dermal placement of the osmotic pumps.
Groups of 5 animals were given 0.1, 1.0 or 3.0 mg/kg animal weight of drug/day via osmotic pumps (Alzet Osmotic Pump 1002, Cupertino, CA) for eight days prior to sacrifice. The volume delivered/day was 6 ul of drug. Control mice underwent induction with anesthesia and laparotomy only. In addition, 5 animals underwent laparotomy and placement of the osmotic pumps which were filled with “drug vehicle (DMSO)” alone i.e., no drug. After 8 days of drug treatment, mice were euthanized under isofluorane anesthesia followed by cervical dislocation. Adhesions were examined by two independent practitioners. […]
Intestinal tissue was placed in Tissue-Tek O.C.T. Compound (Sakura Finetek, Torrance, CA) and immediately frozen in liquid nitrogen. […] Slides were mounted with DAPI Fluoromount-G (Southern Biotech) and fluorescence images were taken with a Zeiss epi-fluorescence microscope. […]

Take `N#CC(=C(/N)Sc1ccccc1N)/C(C#N)=C(\N)Sc1ccccc1N` [U0126]: in data set [1], the “effect on rat peritoneal mesothelial/mesenchymal transition induced by TGF-β” value is listed as “blocked”.
As for `CC(=O)Nc1cccc(-n2c(=O)n(C3CC3)c(=O)c3c(Nc4ccc(I)cc4F)n(C)c(=O)c(C)c32)c1` [trametinib], the “effect of drug alone on cell appearance / toxicity” value in data set [2] was “no effect and no apparent toxic effects”. In addition, the solubility in water entry in “Solubility in water” is “minimally soluble in water”. The “concentration blocking TGF-β induced increases of phospho-Erk1/2, FNEDA, αSMA and p-SMAD2 (linker)” value in data set [3] is at most 2 nM. Moreover, the “average decrease in weight” value in the data set on C57BL/6 mice (1.0 mg dose, eight day period of drug delivery) is recorded as 2.2%. The “average increase in weight” value with C57BL/6 mice (3.0 mg dose, eight day period of drug delivery) is recorded as 0.5%. In addition, the “wound closure and healing at laparotomy site” value with C57BL/6 mice (highest drug dose (3 mg/kg/day)) is “no effect on wound closure and healing”.

Values taken from US11998550B2, “Trametinib prevents mesothelial-mesenchymal transition and ameliorates abdominal adhesion and pulmonary fibrosis formation” (Thomas Jefferson University, priority 2017, dated 2024).
